According to patent US11427549B2, “Pyrimidinyloxy benzo-fused compounds as herbicides” (FMC Corporation, priority 2017, dated 2022):

Tests used:
[1] = test system: wheat (Triticum aestivum); assay: Test A postemergence, wheat; format: in vivo; details: Triticum aestivum, post-emergence, 240 h, 0 to 100 scale (0 no effect, 100 complete control), read-out: Plant response rating, Wheat; for plant injury at 31 g/ha: 31 g ai/ha; for plant injury at 125 g/ha: 125 g ai/ha
[2] = test system: barnyardgrass (Echinochloa crus-galli); assay: Test A postemergence, barnyardgrass; format: in vivo; details: Echinochloa crus-galli, post-emergence, 240 h, 0 to 100 scale (0 no effect, 100 complete control), read-out: Plant response rating, Barnyardgrass; for pest or weed control at 31 g/ha: 31 g ai/ha; for pest or weed control at 125 g/ha: 125 g ai/ha
corn (Zea mays) = assay: Test A postemergence, corn; format: in vivo; details: Zea mays, post-emergence, 240 h, 0 to 100 scale (0 no effect, 100 complete control); for Corn plant response rating (crop injury, 0 = no effect, 100 = complete kill) at 31 g/ha: 31 g ai/ha; for Corn plant response rating (crop injury, 0 = no effect, 100 = complete kill) at 125 g/ha: 125 g ai/ha
[3] = test system: ryegrass, Italian (Italian ryegrass, Lolium multiflorum); assay: Test A postemergence, ryegrass, Italian; format: in vivo; details: Lolium multiflorum, post-emergence, 240 h, 0 to 100 scale (0 no effect, 100 complete control), read-out: Plant response rating, Ryegrass, Italian; for pest or weed control at 31 g/ha: 31 g ai/ha; for pest or weed control at 125 g/ha: 125 g ai/ha
[4] = test system: ryegrass, Italian (Italian ryegrass, Lolium multiflorum); assay: Test A preemergence, ryegrass, Italian; format: in vivo; details: Lolium multiflorum, pre-emergence, 240 h, 0 to 100 scale (0 no effect, 100 complete control), read-out: Plant response rating, Ryegrass, Italian; for pest or weed control at 31 g/ha: 31 g ai/ha; for pest or weed control at 125 g/ha: 125 g ai/ha
[5] = test system: galium (catchweed bedstraw, Galium aparine); assay: Test A postemergence, galium; format: in vivo; details: Galium, post-emergence, 240 h, 0 to 100 scale (0 no effect, 100 complete control), read-out: Plant response rating, Galium; for pest or weed control at 31 g/ha: 31 g ai/ha; for pest or weed control at 125 g/ha: 125 g ai/ha
kochia (Kochia scoparia) [6] = assay: Test A preemergence, kochia; format: in vivo; details: Bassia scoparia, pre-emergence, 240 h, 0 to 100 scale (0 no effect, 100 complete control), read-out: Plant response rating, Kochia; for pest or weed control at 31 g/ha: 31 g ai/ha; for pest or weed control at 125 g/ha: 125 g ai/ha
[7] = test system: blackgrass (Alopecurus myosuroides); assay: Test A postemergence, blackgrass; format: in vivo; details: Alopecurus myosuroides, post-emergence, 240 h, 0 to 100 scale (0 no effect, 100 complete control), read-out: Plant response rating, Blackgrass; for pest or weed control at 31 g/ha: 31 g ai/ha; for pest or weed control at 125 g/ha: 125 g ai/ha
[8] = test system: pigweed (Amaranthus retroflexus); assay: Test A postemergence, pigweed; format: in vivo; details: Amaranthus retroflexus, post-emergence, 240 h, 0 to 100 scale (0 no effect, 100 complete control), read-out: Plant response rating, Pigweed; for pest or weed control at 31 g/ha: 31 g ai/ha; for pest or weed control at 125 g/ha: 125 g ai/ha
[9] = test system: pigweed (Amaranthus retroflexus); assay: Test A preemergence, pigweed; format: in vivo; details: Amaranthus retroflexus, pre-emergence, 240 h, 0 to 100 scale (0 no effect, 100 complete control), read-out: Plant response rating, Pigweed; for pest or weed control at 31 g/ha: 31 g ai/ha; for pest or weed control at 125 g/ha: 125 g ai/ha
[10] = test system: ragweed (common ragweed, Ambrosia elatior); assay: Test A preemergence, ragweed; format: in vivo; details: Ambrosia artemisiifolia, pre-emergence, 240 h, 0 to 100 scale (0 no effect, 100 complete control), read-out: Plant response rating, Ragweed; for pest or weed control at 31 g/ha: 31 g ai/ha; for pest or weed control at 125 g/ha: 125 g ai/ha
[11] = test system: barnyardgrass (Echinochloa crus-galli); assay: Test B flooded paddy test, barnyardgrass; details: Echinochloa crus-galli, read-out: Plant response rating, Barnyardgrass (0 to 100 scale, 0 is no effect, 100 is complete control)
[12] = test system: ragweed (common ragweed, Ambrosia elatior); assay: Test A postemergence, ragweed; format: in vivo; details: Ambrosia artemisiifolia, post-emergence, 240 h, 0 to 100 scale (0 no effect, 100 complete control), read-out: Plant response rating, Ragweed; for pest or weed control at 31 g/ha: 31 g ai/ha; for pest or weed control at 125 g/ha: 125 g ai/ha
[13] = test system: barnyardgrass (Echinochloa crus-galli); assay: Test A preemergence, barnyardgrass; format: in vivo; details: Echinochloa crus-galli, pre-emergence, 240 h, 0 to 100 scale (0 no effect, 100 complete control), read-out: Plant response rating, Barnyardgrass; for pest or weed control at 31 g/ha: 31 g ai/ha; for pest or weed control at 125 g/ha: 125 g ai/ha
rice (Oryza sativa) = assay: Test B flooded paddy test, rice; details: Oryza sativa, read-out: Plant response rating, Rice (0 to 100 scale, 0 is no effect, 100 is complete control)
kochia (Kochia scoparia) [14] = assay: Test A postemergence, kochia; format: in vivo; details: Bassia scoparia, post-emergence, 240 h, 0 to 100 scale (0 no effect, 100 complete control), read-out: Plant response rating, Kochia; for pest or weed control at 31 g/ha: 31 g ai/ha; for pest or weed control at 125 g/ha: 125 g ai/ha
[15] = test system: ducksalad (Heteranthera limosa); assay: Test B flooded paddy test, ducksalad; details: Heteranthera limosa, read-out: Plant response rating, Ducksalad (0 to 100 scale, 0 is no effect, 100 is complete control)

Row | SMILES | plant injury at 31 g/ha [1] | plant injury at 125 g/ha [1] | pest or weed control at 31 g/ha [2] | pest or weed control at 125 g/ha [2] | Corn plant response rating (crop injury, 0 = no effect, 100 = complete kill) at 31 g/ha (corn (Zea mays)) | Corn plant response rating (crop injury, 0 = no effect, 100 = complete kill) at 125 g/ha (corn (Zea mays)) | pest or weed control at 31 g/ha [3] | pest or weed control at 125 g/ha [3] | pest or weed control at 31 g/ha [4] | pest or weed control at 125 g/ha [4] | pest or weed control at 31 g/ha [5] | pest or weed control at 125 g/ha [5] | pest or weed control at 31 g/ha (kochia (Kochia scoparia) [6]) | pest or weed control at 125 g/ha (kochia (Kochia scoparia) [6]) | pest or weed control at 31 g/ha [7] | pest or weed control at 125 g/ha [7] | pest or weed control at 31 g/ha [8] | pest or weed control at 125 g/ha [8] | pest or weed control at 31 g/ha [9] | pest or weed control at 125 g/ha [9] | also measured
1 | CCCC1OC(=O)Cc2cccc(Oc3ncc(Cl)cn3)c21 (stereo not shown) [Compound 35, 8-[(5-Chloro-2-pyrimidinyl)oxy]-1,4-dihydro-1-propyl-3H-2-benzopyran-3-one] | 0% | 0% | 0% | 0% | 0% | 0% | 0% | 0% | 0% | 0% | 10% | 30% | 0% | 0% | 10% | 10% | 30% | 50% | 0% | 10% | pest or weed control at 31 g/ha [10]: 0%; pest or weed control at 125 g/ha [10]: 0%; pest or weed control at 250 g/ha [11]: 0%; pest or weed control at 31 g/ha [12]: 0%; pest or weed control at 125 g/ha [12]: 10%; pest or weed control at 31 g/ha [13]: 0%; pest or weed control at 125 g/ha [13]: 10%; plant injury at 250 g/ha (rice (Oryza sativa)): 0%; pest or weed control at 31 g/ha (kochia (Kochia scoparia) [14]): 20%; pest or weed control at 125 g/ha (kochia (Kochia scoparia) [14]): 50%; pest or weed control at 250 g/ha [15]: 0%
2 | O=C1O[C@@H](CCCC(F)(F)F)c2c(Oc3ncc(Cl)cn3)cccc21 [Compound 2, (3S)-4-[(5-Chloro-2-pyrimidinyl)oxy]-3-(4,4,4-trifluorobutyl)-1-(3H)-isobenzofuranone] | 0% | 0% | 0% | 0% | 0% | 10% | 0% | 10% | 0% | 0% | 0% | 10% | 0% | 0% | 0% | 0% | 10% | 50% | 0% | 20% | pest or weed control at 31 g/ha [10]: 0%; pest or weed control at 125 g/ha [10]: 0%; pest or weed control at 250 g/ha [11]: 0%; pest or weed control at 31 g/ha [12]: 0%; pest or weed control at 125 g/ha [12]: 30%; pest or weed control at 31 g/ha [13]: 0%; pest or weed control at 125 g/ha [13]: 0%; plant injury at 250 g/ha (rice (Oryza sativa)): 0%; pest or weed control at 31 g/ha (kochia (Kochia scoparia) [14]): 0%; pest or weed control at 125 g/ha (kochia (Kochia scoparia) [14]): 10%; pest or weed control at 250 g/ha [15]: 0%
3 | O=C1NC(CCCC(F)(F)F)c2c(Oc3ncc(Cl)cn3)cccc21 (stereo not shown) [Compound 13, 4-[(5-Chloro-2-pyrimidinyl)oxy]-2,3-dihydro-3-(4,4,4-trifluorobutyl)-1H-isoindol-1-one] | 0% | 0% | 0% | 0% | 0% | 0% | 0% | 0% | 0% | 0% | 0% | 0% | 0% | 0% | 0% | 0% | 0% | 10% | 0% | 0% | pest or weed control at 31 g/ha [10]: 0%; pest or weed control at 125 g/ha [10]: 0%; pest or weed control at 250 g/ha [11]: 0%; pest or weed control at 31 g/ha [12]: 0%; pest or weed control at 125 g/ha [12]: 0%; pest or weed control at 31 g/ha [13]: 0%; pest or weed control at 125 g/ha [13]: 0%; plant injury at 250 g/ha (rice (Oryza sativa)): 0%; pest or weed control at 31 g/ha (kochia (Kochia scoparia) [14]): 0%; pest or weed control at 125 g/ha (kochia (Kochia scoparia) [14]): 0%; pest or weed control at 250 g/ha [15]: 0%
4 | O=C1COC(CCCC(F)(F)F)c2c(Oc3ncc(Cl)cn3)cccc21 (stereo not shown) [Compound 5, 8-[(5-Chloro-2-pyrimidinyl)oxy]-1-(4,4,4-trifluorobutyl)-1H-2-benzopyran-4(3H)-one] | 0% | 0% | 0% | 10% | 0% | 10% | 0% | 10% | 0% | 0% | 0% | 30% | 0% | 0% | 10% | 10% | 10% | 90% | 0% | 90% | pest or weed control at 31 g/ha [10]: 0%; pest or weed control at 125 g/ha [10]: 0%; pest or weed control at 250 g/ha [11]: 0%; pest or weed control at 31 g/ha [12]: 0%; pest or weed control at 125 g/ha [12]: 0%; pest or weed control at 31 g/ha [13]: 0%; pest or weed control at 125 g/ha [13]: 0%; plant injury at 250 g/ha (rice (Oryza sativa)): 40%; pest or weed control at 31 g/ha (kochia (Kochia scoparia) [14]): 0%; pest or weed control at 125 g/ha (kochia (Kochia scoparia) [14]): 10%; pest or weed control at 250 g/ha [15]: 60%
